Results from patent publication US20120230970A1, “METHOD FOR TREATING PERVASIVE D[…]” (CUREMARK, LLC, priority 1999, published 2012).

How the values were obtained:
autistic children [1] = test: Fecal Chymotrypsin Test after secretin infusion in autistic children (Experiments 1 and 2); format: in vivo, human; conditions: 6 Months Post-Secretin Administration
Protocol: In this experiment, 16 children diagnosed as having autism were administered the following Fecal Chymotrypsin Test in accordance with an embodiment of the invention. First, approximately 2 grams of stool were collected from each child and placed in a sterile container (although it is to be understood that any quantity of stool may be collected, as 2 grams of stool is not a required amount). Each stool sample was then analyzed using, e.g., an enzymatic photospectrometry analysis as is known by those skilled in the art, to determine the level of fecal chymotrypsin in the stool. Although the enzymatic photospectrophotometry process is preferred, any suitable conventional method may be used for measuring the fecal chymotrypsin levels. The measured chymotrypsin levels of the 16 autistic children are illustrated in FIG. 13.
After determining the chymotrypsin levels of the stools, each of these levels were compared with threshold chymotrypsin levels to determine if the child was likely to benefit from secretin administration. By way of example, with the fecal chymotrypsin tests of the stool samples being performed at 30° C., normal levels of chymotrypsin are deemed to lie above 8.4 U/gram, whereas pathologically abnormal levels are deemed to lie below 4.2 U/gram. In addition, chymotrypsin levels between 8.4 U/gram and 4.2 U/gram are considered equivocal, and further testing of the individual's fecal chymotrypsin levels over a period of time should be performed. […]
The results of Experiment 1 are illustrated in FIGS. 1-14. For instance, approximately one week after the first secretin infusion, the fecal chymotrypsin level of each of the 16 autistic children was measured again. […]
In this experiment, 37 autistic children with abnormal fecal chymotrypsin levels were administered secretin over the course of 6 months using the secretin infusion process described above. Their fecal chymotrypsin (FC) levels were measured weekly using the fecal chymotrypsin test described above.

[2] = test system: children diagnosed with Autism; conditions: secretin given as diagnostic procedure during upper gastrointestinal endoscopy; Horvath et al. 1998; cited from earlier work
autistic children [3] = test: CARS (Childhood Autism Rating Scale) test pre- and post-secretin administration (Experiment 1); format: in vivo, human; conditions: 16 autistic children; 3 weeks post infusion vs pre-secretin
Protocol: Upon determining that a given child was likely to benefit from secretin administration based on the results of the fecal chymotrypsin test, the child was administered a CARS (Childhood Autism Rating Scale) test prior to being scheduled for secretin infusion.
For each of the 16 autistic children tested, a preferred secretin infusion process according to the present invention was performed involving the administering of 1 U/kg of body weight of Secretin-Ferring for a period of nine months at intervals of approximately 6 weeks. In addition, another CARS test was administered to each of the 16 autistic children 3 weeks post secretin administration to determine if their autism had changed post infusion.
A preferred secretin infusion process includes the initial step of prepping an arm of the candidate child with an IV injection of saline. A test dose of 1 U of Secretin-Ferring is then administered to the child. Approximately one minute after, infusion, the child is examined for signs of allergic reaction including rash, increased heart rate, and increase of blood pressure. […] Subsequently, each child receives a 1 U/kg of body weight infusion of Secretin-Ferring approximately every 6 weeks for 9 months. It is to be understood that any commercially available form of secretin may be used. […]

[4] = of 37 children (pre-secretin 0)

For secretin, the “# Autistic Children w/Equivocal FC levels” value (autistic children [1]; [4]) was 2, the “# Autistic Children w/normal FC levels” value (autistic children [1]; [4]) was 34 and the “# Autistic Children w/Abnormal FC levels” value (autistic children [1]; of 37 children (pre-secretin 37)) was 1. For the same substance, the “effect on symptoms associated with Autism” value [2] was “ameliorating the symptoms associated with Autism” and the CARS component scores (autistic children [3]) was “demonstrated improvement except for the fear component which increased”.
